Measurements taken from patent US5747544A, “Method of using pure 3R-3'R stereoisomer of zeaxanthin to treat or prevent retinal degeneration in humans” (priority 1995, dated 1998).

How the values were obtained:
retina = details: in vivo; cited from earlier work
macular degeneration = details: general anti-oxidants; cited from earlier work
chickens = details: cited from earlier work
physchem = details: dry powder
Source text: After roughly six months of storage in a relatively unprotected state (usually under normal refrigeration with moderately frequent removal; without containing any antioxidants, and without taking any precautions to prevent contact by atmospheric oxygen), a sample of the zeaxanthin preparation was sent for stereoisomeric analysis to Prof.

[1] = tested on: animals such as birds or fish; experiment: Feeding of F. multivorum cell paste to animals such as birds or fish; type: in vivo; details: oral, cell paste of F. multivorum cells
Source text: Although this option has not yet been fully evaluated, it is possible that the Flavobacterium multivorum cells themselves, in intact form and possibly even in a viable state, may be suitable for direct ingestion by humans. A substantial number of human foods (including cheese, yogurt, beer, etc.) contain viable or killed-but-intact microbial cells, and there is no known pathogenicity associated with the F. multivorum cells isolated by Applied Food Biotechnology, Inc. They were isolated from a relatively cold artesian waterway, and since they are adapted to living in cold water, they cannot survive or reproduce well at temperatures inside the human body. […] When fed directly in the form of a cell paste to animals such as birds or fish, these cells appear to be well-suited as delivery vehicles for zeaxanthin.

[2] = di Mascio et al 1989; among known carotenoids; cited from earlier work

In the case of `CC1=C(/C=C/C(C)=C/C=C/C(C)=C/C=C/C=C(C)/C=C/C=C(C)/C=C/C2=C(C)C(=O)CCC2(C)C)C(C)(C)CCC1=O` [Canthaxanthin], the retinal toxicity (retina) is given as “has been shown to cause retinal maculopathy”.

For `CC1=C(/C=C/C(C)=C/C=C/C(C)=C/CO)C(C)(C)CCC1` [Retinol (Vit. A), Retinol], the “benefit in the retina against macular degeneration” value (“benefit in the retina” below) (macular degeneration) is given as “very limited”.

In the case of `CC1=C(/C=C/C(C)=C/C=C/C(C)=C/C=C/C=C(C)/C=C/C=C(C)/C=C/C2=C(C)C[C@@H](O)CC2(C)C)C(C)(C)C[C@H](O)C1` [Zeaxanthin, 3,3'-dihydroxy-β-β-carotene], the coloration of chickens (chickens; Flavobacter cells (ATCC 21081, 21588) with their zeaxanthin fed, U.S. Pat. No. 3,891,504) is given as “caused suitable coloration”, the “coloring potency relative to lutein” value (chickens; per-weight basis, chicken skin and egg yolks) is given as 2-3 times and the “effectiveness in imparting color to animal flesh or chicken yolks relative to lutein” value (chickens; per-weight basis) is given as “several times more effective”. The remaining at 4380 h (physchem) was 92% and the “absorption and tissue deposition of zeaxanthin” value [1] was “absorbed into the bloodstream and deposited into various tissues at expected and appropriate tissue locations”.

In the case of `Cc1c(C)c2c(c(C)c1O)CCC(C)(CCCC(C)CCCC(C)CCCC(C)C)O2` (stereo not drawn) [alpha-Tocopherol], the “benefit in the retina” value (macular degeneration) is listed as “very limited”.

In the case of `CC(C)=CCC/C(C)=C/C=C/C(C)=C/C=C/C(C)=C/C=C/C=C(C)/C=C/C=C(C)/C=C/C=C(\C)CCC=C(C)C` [lycopene], the singlet oxygen quenching [2] is listed as “best singlet oxygen quencher of all known carotenoids”.

For `CC1=C(/C=C/C(C)=C/C=C/C(C)=C/C=C/C=C(C)/C=C/C=C(C)/C=C/C2=C(C)CCCC2(C)C)C(C)(C)CCC1` [β-Carotene, β-carotene], the “benefit in the retina” value (macular degeneration) is listed as “very limited”.
